Results reported in the supplement of paper PMC11451515.

Tested on: P12-Ichikawa
Test: cell viability relative to DMSO control; higher = less cytotoxic
Conditions: 48 h
In short: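 NOMO1 or SEM cells were plated at 500 cells/well and P12-Ichikawa cells at 1000 cells/well in 1536-well plates (5 μl), after each leukemia line had been adapted for at least four passages in each medium. Pin dosing delivered library compounds in DMSO at 11 threefold concentrations, 47 μM to 0.79 nM. CellTiter-Glo One luminescence was read after 48 h at 37°C. Viability is reported as a per-plate percentage of DMSO wells, with cell-free wells as background.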

[1] = HPLM + 10% dialyzed FBS, 0.000781 µM
[2] = HPLM + 10% dialyzed FBS, 0.00234 µM
[3] = HPLM + 10% dialyzed FBS, 0.00702 µM
[4] = HPLM + 10% dialyzed FBS, 0.0211 µM
[5] = HPLM + 10% dialyzed FBS, 0.0632 µM
[6] = HPLM + 10% dialyzed FBS, 0.19 µM
[7] = HPLM + 10% dialyzed FBS, 0.569 µM
[8] = HPLM + 10% dialyzed FBS, 1.71 µM
[9] = HPLM + 10% dialyzed FBS, 5.12 µM
[10] = HPLM + 10% dialyzed FBS, 15.4 µM
[11] = HPLM + 10% dialyzed FBS, 46.1 µM
[12] = RPMI 5 mM glucose + 10% FBS, 0.000781 µM
[13] = RPMI 5 mM glucose + 10% FBS, 0.00234 µM
[14] = RPMI 5 mM glucose + 10% FBS, 0.00702 µM
[15] = RPMI 5 mM glucose + 10% FBS, 0.0211 µM
[16] = RPMI 5 mM glucose + 10% FBS, 0.0632 µM
[17] = RPMI 5 mM glucose + 10% FBS, 0.19 µM
[18] = RPMI 5 mM glucose + 10% FBS, 0.569 µM
[19] = RPMI 5 mM glucose + 10% FBS, 1.71 µM
[20] = RPMI 5 mM glucose + 10% FBS, 5.12 µM
[21] = RPMI 5 mM glucose + 10% FBS, 15.4 µM
[22] = RPMI 5 mM glucose + 10% FBS, 46.1 µM
[23] = RPMI 5 mM glucose + 10% dialyzed FBS, 0.000781 µM
[24] = RPMI 5 mM glucose + 10% dialyzed FBS, 0.00234 µM
[25] = RPMI 5 mM glucose + 10% dialyzed FBS, 0.00702 µM
[26] = RPMI 5 mM glucose + 10% dialyzed FBS, 0.0211 µM
[27] = RPMI 5 mM glucose + 10% dialyzed FBS, 0.0632 µM
[28] = RPMI 5 mM glucose + 10% dialyzed FBS, 0.19 µM
[29] = RPMI 5 mM glucose + 10% dialyzed FBS, 0.569 µM
[30] = RPMI 5 mM glucose + 10% dialyzed FBS, 1.71 µM
[31] = RPMI 5 mM glucose + 10% dialyzed FBS, 5.12 µM
[32] = RPMI 5 mM glucose + 10% dialyzed FBS, 15.4 µM
[33] = RPMI 5 mM glucose + 10% dialyzed FBS, 46.1 µM

| SMILES | cell viability [1] | cell viability [2] | cell viability [3] | cell viability [4] | cell viability [5] | cell viability [6] | cell viability [7] | cell viability [8] | cell viability [9] | cell viability [10] | cell viability [11] | cell viability [12] | cell viability [13] | cell viability [14] | cell viability [15] | cell viability [16] | cell viability [17] | cell viability [18] | cell viability [19] | cell viability [20] | cell viability [21] | cell viability [22] | cell viability [23] | cell viability [24] | cell viability [25] | cell viability [26] | cell viability [27] | cell viability [28] | cell viability [29] | cell viability [30] | cell viability [31] | cell viability [32] | cell viability [33] |
| --- | --- | --- | --- | --- | --- | --- | --- | --- | --- | --- | --- | --- | --- | --- | --- | --- | --- | --- | --- | --- | --- | --- | --- | --- | --- | --- | --- | --- | --- | --- | --- | --- | --- |
| C[S+](=O)([O-])c1ccc(Oc2cc(F)cc(C#N)c2)c2c1[C@H](O)C(F)(F)C2 | 92.8% | 96.9% | 102% | 100% | 102% | 107% | 103% | 104% | 110% | 109% | 96.3% | 91.5% | 100% | 103% | 117% | 108% | 107% | 112% | 105% | 105% | 106% | 97.8% | 92.6% | 105% | 108% | 110% | 115% | 110% | 104% | 110% | 110% | 104% | 106% |
| CCOC1=CC=CC=C1N\2C(=O)C3=C(C=CC=C3)\N=C2C(C)N4CCN(CC4)C(=O)COC5=CC=C(Cl)C=C5 (stereo not drawn) | 121% | 120% | 116% | 115% | 107% | 111% | 72.3% | 15.9% | 8.63% | 6.31% | 4.74% | 121% | 126% | 119% | 110% | 117% | 111% | 94.4% | 51.8% | 9.87% | 5.31% | 4.69% | – | – | – | – | – | – | – | – | – | – | – |
| Nc1ncnc2c1nc(Cl)n2[C@@H]1O[C@H](CO)[C@@H](O)[C@H]1O | 123% | 125% | 125% | 121% | 121% | 122% | 126% | 125% | 118% | 103% | 58.7% | – | – | – | – | – | – | – | – | – | – | – | – | – | – | – | – | – | – | – | – | – | – |
| Nc1ncnc2c1c(-c1cccc(OCc3ccccc3)c1)cn2C1CC(CN2CCCC2)C1 (stereo not drawn) | 116% | 128% | 120% | 130% | 134% | 128% | 133% | 124% | 134% | 121% | 62.4% | – | – | – | – | – | – | – | – | – | – | – | – | – | – | – | – | – | – | – | – | – | – |
| CCOC(=O)\C1=C\[C@@H](OC(CC)CC)[C@H](NC(C)=O)[C@@H](N)C1 | 98.9% | 95% | 92.3% | 97.3% | 92.3% | 103% | 96.9% | 96% | 99.6% | 100% | 94.9% | 86% | 95.3% | 97.4% | 95.8% | 94.3% | 102% | 95.7% | 88.5% | 102% | 100% | 99.9% | 87.7% | 79.3% | 86.5% | 94.8% | 90.7% | 81.4% | 88.8% | 86.2% | 87.4% | 84.8% | 99.3% |
| OC(CN1CCN(c2cccc(Cl)c2)CC1)C(c1ccccc1)c1ccccc1 (stereo not drawn) | 109% | 114% | 119% | 111% | 120% | 23.4% | 17.3% | 4.64% | 4.77% | 4.92% | 5.05% | 112% | 117% | 114% | 115% | 123% | 126% | 114% | 7.71% | 6.13% | 5.76% | 5.28% | 102% | 112% | 111% | 112% | 118% | 105% | 84.9% | 4.96% | 5.14% | 4.91% | 4.74% |
| CC1(C)C(N(O)C(=O)Nc2ccc(Cl)cc2)N(c2ccc(Cl)cc2)C(=O)N1CC(=O)N/N=C/C=C/c1ccc([N+](=O)[O-])o1 (stereo not drawn) | 112% | 109% | 111% | 113% | 115% | 104% | 105% | 103% | 99.4% | 103% | 65.6% | 108% | 105% | 105% | 110% | 113% | 107% | 110% | 106% | 102% | 100% | 52.4% | 115% | 104% | 115% | 111% | 109% | 113% | 104% | 103% | 103% | 91.3% | 49% |
| C[C@]12CC[C@H]3[C@@H](CCC/4=C/C(=O)CC[C@]34C)[C@@H]1CC[C@@H]2OC(=O)CCC5CCCC5 | 93.1% | 100% | 104% | 113% | 98.8% | 101% | 106% | 110% | 104% | 111% | 114% | 83.1% | 84.3% | 101% | 107% | 115% | 104% | 107% | 108% | 110% | 101% | 99.9% | 90.8% | 93.5% | 99.8% | 102% | 100% | 104% | 104% | 98.9% | 104% | 110% | 96.7% |
| CCOc1ccc(Cc2cc([C@@H]3O[C@H](CO)[C@@H](O)[C@H](O)[C@H]3O)ccc2Cl)cc1 | 123% | 124% | 120% | 84.8% | 125% | 134% | 129% | 123% | 127% | 126% | 123% | – | – | – | – | – | – | – | – | – | – | – | – | – | – | – | – | – | – | – | – | – | – |
| CON(C)C(=O)N1/N=C(S[C@@]1(CCCN)C2=CC=CC=C2)/C3=CC(=CC=C3F)F | 102% | 118% | 122% | 83.1% | 12.1% | 10.6% | 10.1% | 10.1% | 9% | 11.4% | 10.7% | 101% | 114% | 123% | 61.1% | 13.7% | 12.6% | 14.3% | 10.8% | 8.36% | 9.67% | 11.1% | – | – | – | – | – | – | – | – | – | – | – |
| Cc1c(C)c2c(c(C)c1O)CCC(C)(COc1ccc(CC3SC(=O)NC3=O)cc1)O2 (stereo not drawn) | 112% | 127% | 121% | 126% | 126% | 127% | 131% | 136% | 129% | 118% | 109% | – | – | – | – | – | – | – | – | – | – | – | – | – | – | – | – | – | – | – | – | – | – |
